In the kinase profiling compilation of Christmann-Franck et al. (2016):

molecular target: WNK3 (human) (UniProt Q9BYP7); experiment: radiometric filter-binding kinase assay, Kinase HotSpot; conditions: compound 0.5 µM; ATP 10 µM

With N/C(=N\N=C/c1ccc(-c2cccc([N+](=O)[O-])c2)o1)N[N+](=O)[O-] the residual activity was 96.6%.

molecular target: AKT3 (human) (UniProt Q9Y243); experiment: as above; conditions: compound 0.5 µM; ATP 10 µM
Sequence (Q9Y243 whole entry, looked up): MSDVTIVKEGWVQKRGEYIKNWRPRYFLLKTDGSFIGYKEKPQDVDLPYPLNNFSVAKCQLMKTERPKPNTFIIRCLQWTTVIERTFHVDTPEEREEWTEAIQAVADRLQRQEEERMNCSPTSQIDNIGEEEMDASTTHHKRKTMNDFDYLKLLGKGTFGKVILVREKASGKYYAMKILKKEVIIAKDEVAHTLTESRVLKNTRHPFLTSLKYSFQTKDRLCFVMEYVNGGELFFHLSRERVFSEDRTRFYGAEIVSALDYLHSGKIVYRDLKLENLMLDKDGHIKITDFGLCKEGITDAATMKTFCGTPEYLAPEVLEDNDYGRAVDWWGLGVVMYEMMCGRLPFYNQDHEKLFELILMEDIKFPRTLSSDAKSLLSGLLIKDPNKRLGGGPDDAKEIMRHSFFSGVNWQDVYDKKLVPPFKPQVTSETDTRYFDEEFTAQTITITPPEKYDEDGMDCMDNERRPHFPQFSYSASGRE

In order of falling residual activity:
1. O=C(O)c1ccc2c3c1cccc3c(=O)n1c3ccccc3nc21  104%
2. N#Cc1c(NC(=O)c2cccc3ccccc23)sc2c1CCCC2  99.6%
3. Cc1cc(Nc2nc(-c3ccccc3)nc3ccccc23)n[nH]1  95.5%
4. N/C(=N\N=C/c1ccc(-c2cccc([N+](=O)[O-])c2)o1)N[N+](=O)[O-]  94.3%

molecular target: MAPK3 (human) (UniProt P27361); experiment: as above; conditions: compound 0.5 µM; ATP 10 µM
Sequence (P27361 whole entry, looked up): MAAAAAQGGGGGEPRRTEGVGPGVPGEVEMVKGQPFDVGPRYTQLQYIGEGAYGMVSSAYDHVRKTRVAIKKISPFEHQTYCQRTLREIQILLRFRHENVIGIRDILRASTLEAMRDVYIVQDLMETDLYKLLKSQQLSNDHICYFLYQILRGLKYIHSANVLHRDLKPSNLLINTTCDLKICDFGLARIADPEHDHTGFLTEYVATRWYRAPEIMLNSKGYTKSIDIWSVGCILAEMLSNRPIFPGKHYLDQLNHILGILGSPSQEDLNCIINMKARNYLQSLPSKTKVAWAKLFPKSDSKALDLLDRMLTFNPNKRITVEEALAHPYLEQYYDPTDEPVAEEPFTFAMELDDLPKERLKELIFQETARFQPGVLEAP

In order of falling residual activity:
1. O=C(O)c1ccc2c3c1cccc3c(=O)n1c3ccccc3nc21  102%
2. N#Cc1c(NC(=O)c2cccc3ccccc23)sc2c1CCCC2  97.1%
3. N/C(=N\N=C/c1ccc(-c2cccc([N+](=O)[O-])c2)o1)N[N+](=O)[O-]  88.4%
4. Cc1cc(Nc2nc(-c3ccccc3)nc3ccccc23)n[nH]1  80.8%

molecular target: FGR (human) (UniProt P09769); experiment: as above; conditions: compound 0.5 µM; ATP 10 µM

In order of rising residual activity:
1. Cc1cc(Nc2nc(-c3ccccc3)nc3ccccc23)n[nH]1  54.8%
2. N/C(=N\N=C/c1ccc(-c2cccc([N+](=O)[O-])c2)o1)N[N+](=O)[O-]  90.9%
3. N#Cc1c(NC(=O)c2cccc3ccccc23)sc2c1CCCC2  98.1%
4. O=C(O)c1ccc2c3c1cccc3c(=O)n1c3ccccc3nc21  98.9%

molecular target: PIM2 (human) (UniProt Q9P1W9); experiment: as above; conditions: compound 0.5 µM; ATP 10 µM
Sequence (Q9P1W9 whole entry, looked up): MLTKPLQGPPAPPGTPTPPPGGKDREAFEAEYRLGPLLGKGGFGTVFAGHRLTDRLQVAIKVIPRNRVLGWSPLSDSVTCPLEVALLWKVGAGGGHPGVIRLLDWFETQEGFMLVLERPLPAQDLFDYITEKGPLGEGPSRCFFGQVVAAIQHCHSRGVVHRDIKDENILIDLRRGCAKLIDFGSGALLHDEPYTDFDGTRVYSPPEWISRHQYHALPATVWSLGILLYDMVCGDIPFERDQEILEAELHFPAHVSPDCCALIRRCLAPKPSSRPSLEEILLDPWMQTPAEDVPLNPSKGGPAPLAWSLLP

In order of rising residual activity:
1. O=C(O)c1ccc2c3c1cccc3c(=O)n1c3ccccc3nc21  41.7%
2. Cc1cc(Nc2nc(-c3ccccc3)nc3ccccc23)n[nH]1  92.7%
3. N#Cc1c(NC(=O)c2cccc3ccccc23)sc2c1CCCC2  104%
4. N/C(=N\N=C/c1ccc(-c2cccc([N+](=O)[O-])c2)o1)N[N+](=O)[O-]  106%

test system: SGK1 (human), O00141 [S422D]; experiment: as above; conditions: compound 0.5 µM; ATP 10 µM

In order of rising residual activity:
1. N/C(=N\N=C/c1ccc(-c2cccc([N+](=O)[O-])c2)o1)N[N+](=O)[O-]  92.4%
2. Cc1cc(Nc2nc(-c3ccccc3)nc3ccccc23)n[nH]1  95.5%
3. O=C(O)c1ccc2c3c1cccc3c(=O)n1c3ccccc3nc21  102%
4. N#Cc1c(NC(=O)c2cccc3ccccc23)sc2c1CCCC2  108%

molecular target: MAP3K3 (human) (UniProt Q99759); experiment: as above; conditions: compound 0.5 µM; ATP 10 µM

In order of falling residual activity:
1. N#Cc1c(NC(=O)c2cccc3ccccc23)sc2c1CCCC2  99.8%
2. N/C(=N\N=C/c1ccc(-c2cccc([N+](=O)[O-])c2)o1)N[N+](=O)[O-]  93.8%
3. Cc1cc(Nc2nc(-c3ccccc3)nc3ccccc23)n[nH]1  82.9%
4. O=C(O)c1ccc2c3c1cccc3c(=O)n1c3ccccc3nc21  81%

molecular target: STK11 (human) (UniProt Q15831); experiment: as above; conditions: compound 0.5 µM; ATP 10 µM
Sequence (Q15831 whole entry, looked up): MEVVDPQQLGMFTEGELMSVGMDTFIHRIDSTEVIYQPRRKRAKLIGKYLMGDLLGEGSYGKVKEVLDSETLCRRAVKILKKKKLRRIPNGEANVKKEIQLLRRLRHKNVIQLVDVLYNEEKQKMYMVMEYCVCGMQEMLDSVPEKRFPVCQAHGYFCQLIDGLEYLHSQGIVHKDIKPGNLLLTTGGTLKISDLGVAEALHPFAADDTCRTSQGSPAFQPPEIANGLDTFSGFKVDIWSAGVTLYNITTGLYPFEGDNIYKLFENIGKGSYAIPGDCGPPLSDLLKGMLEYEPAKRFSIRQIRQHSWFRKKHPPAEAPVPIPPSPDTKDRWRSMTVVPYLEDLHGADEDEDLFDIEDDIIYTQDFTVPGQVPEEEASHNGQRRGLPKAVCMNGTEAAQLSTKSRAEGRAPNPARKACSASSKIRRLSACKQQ

In order of rising residual activity:
1. Cc1cc(Nc2nc(-c3ccccc3)nc3ccccc23)n[nH]1  69%
2. N#Cc1c(NC(=O)c2cccc3ccccc23)sc2c1CCCC2  96.1%
3. O=C(O)c1ccc2c3c1cccc3c(=O)n1c3ccccc3nc21  96.6%
4. N/C(=N\N=C/c1ccc(-c2cccc([N+](=O)[O-])c2)o1)N[N+](=O)[O-]  98.7%

molecular target: WEE1 (human) (UniProt P30291); experiment: as above; conditions: compound 0.5 µM; ATP 10 µM
Sequence (P30291 whole entry, looked up): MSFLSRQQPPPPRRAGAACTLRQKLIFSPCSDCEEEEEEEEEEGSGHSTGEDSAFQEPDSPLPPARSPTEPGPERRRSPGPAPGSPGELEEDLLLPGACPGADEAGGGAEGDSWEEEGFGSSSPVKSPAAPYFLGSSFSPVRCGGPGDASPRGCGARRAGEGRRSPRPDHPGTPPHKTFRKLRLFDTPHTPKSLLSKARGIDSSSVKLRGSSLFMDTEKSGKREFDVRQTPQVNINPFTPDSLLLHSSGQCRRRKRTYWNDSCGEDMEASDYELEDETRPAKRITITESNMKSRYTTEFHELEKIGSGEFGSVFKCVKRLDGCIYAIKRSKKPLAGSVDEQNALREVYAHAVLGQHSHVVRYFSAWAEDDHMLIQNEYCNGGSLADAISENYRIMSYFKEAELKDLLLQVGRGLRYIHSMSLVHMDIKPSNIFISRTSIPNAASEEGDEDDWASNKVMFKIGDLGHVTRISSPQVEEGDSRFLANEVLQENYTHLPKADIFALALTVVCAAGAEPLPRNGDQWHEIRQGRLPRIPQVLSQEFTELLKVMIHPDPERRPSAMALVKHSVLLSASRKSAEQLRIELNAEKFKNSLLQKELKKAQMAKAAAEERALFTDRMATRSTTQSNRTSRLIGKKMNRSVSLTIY

In order of rising residual activity:
1. O=C(O)c1ccc2c3c1cccc3c(=O)n1c3ccccc3nc21  84.6%
2. Cc1cc(Nc2nc(-c3ccccc3)nc3ccccc23)n[nH]1  88%
3. N#Cc1c(NC(=O)c2cccc3ccccc23)sc2c1CCCC2  88.9%
4. N/C(=N\N=C/c1ccc(-c2cccc([N+](=O)[O-])c2)o1)N[N+](=O)[O-]  100%

molecular target: NEK6 (human) (UniProt Q9HC98); experiment: as above; conditions: compound 0.5 µM; ATP 10 µM

In order of rising residual activity:
1. N/C(=N\N=C/c1ccc(-c2cccc([N+](=O)[O-])c2)o1)N[N+](=O)[O-]  93.4%
2. Cc1cc(Nc2nc(-c3ccccc3)nc3ccccc23)n[nH]1  93.9%
3. N#Cc1c(NC(=O)c2cccc3ccccc23)sc2c1CCCC2  101%
4. O=C(O)c1ccc2c3c1cccc3c(=O)n1c3ccccc3nc21  115%

molecular target: CDK2 CCNE1 (human) (UniProt P24941+P24864); experiment: as above; conditions: compound 0.5 µM; ATP 10 µM

In order of rising residual activity:
1. Cc1cc(Nc2nc(-c3ccccc3)nc3ccccc23)n[nH]1  75.4%
2. N#Cc1c(NC(=O)c2cccc3ccccc23)sc2c1CCCC2  89.1%
3. O=C(O)c1ccc2c3c1cccc3c(=O)n1c3ccccc3nc21  90.9%

molecular target: MAPK12 (human) (UniProt P53778); experiment: as above; conditions: compound 0.5 µM; ATP 10 µM

In order of falling residual activity:
1. O=C(O)c1ccc2c3c1cccc3c(=O)n1c3ccccc3nc21  103%
2. N#Cc1c(NC(=O)c2cccc3ccccc23)sc2c1CCCC2  95.6%
3. N/C(=N\N=C/c1ccc(-c2cccc([N+](=O)[O-])c2)o1)N[N+](=O)[O-]  93.4%
4. Cc1cc(Nc2nc(-c3ccccc3)nc3ccccc23)n[nH]1  86.8%

molecular target: SRC (human) (UniProt P12931); experiment: as above; conditions: compound 0.5 µM; ATP 10 µM

In order of falling residual activity:
1. N/C(=N\N=C/c1ccc(-c2cccc([N+](=O)[O-])c2)o1)N[N+](=O)[O-]  99%
2. O=C(O)c1ccc2c3c1cccc3c(=O)n1c3ccccc3nc21  96.3%
3. N#Cc1c(NC(=O)c2cccc3ccccc23)sc2c1CCCC2  93.5%
4. Cc1cc(Nc2nc(-c3ccccc3)nc3ccccc23)n[nH]1  24.4%

molecular target: CSNK2A2 (human) (UniProt P19784); experiment: as above; conditions: compound 0.5 µM; ATP 10 µM

In order of falling residual activity:
1. N/C(=N\N=C/c1ccc(-c2cccc([N+](=O)[O-])c2)o1)N[N+](=O)[O-]  107%
2. N#Cc1c(NC(=O)c2cccc3ccccc23)sc2c1CCCC2  92.2%
3. Cc1cc(Nc2nc(-c3ccccc3)nc3ccccc23)n[nH]1  15%
4. O=C(O)c1ccc2c3c1cccc3c(=O)n1c3ccccc3nc21  13.3%

molecular target: PRKCG (human) (UniProt P05129); experiment: as above; conditions: compound 0.5 µM; ATP 10 µM

In order of falling residual activity:
1. O=C(O)c1ccc2c3c1cccc3c(=O)n1c3ccccc3nc21  99.1%
2. Cc1cc(Nc2nc(-c3ccccc3)nc3ccccc23)n[nH]1  98.6%
3. N/C(=N\N=C/c1ccc(-c2cccc([N+](=O)[O-])c2)o1)N[N+](=O)[O-]  96.4%
4. N#Cc1c(NC(=O)c2cccc3ccccc23)sc2c1CCCC2  95.4%

molecular target: TAOK1 (human) (UniProt Q7L7X3); experiment: as above; conditions: compound 0.5 µM; ATP 10 µM
Sequence (Q7L7X3 whole entry, looked up): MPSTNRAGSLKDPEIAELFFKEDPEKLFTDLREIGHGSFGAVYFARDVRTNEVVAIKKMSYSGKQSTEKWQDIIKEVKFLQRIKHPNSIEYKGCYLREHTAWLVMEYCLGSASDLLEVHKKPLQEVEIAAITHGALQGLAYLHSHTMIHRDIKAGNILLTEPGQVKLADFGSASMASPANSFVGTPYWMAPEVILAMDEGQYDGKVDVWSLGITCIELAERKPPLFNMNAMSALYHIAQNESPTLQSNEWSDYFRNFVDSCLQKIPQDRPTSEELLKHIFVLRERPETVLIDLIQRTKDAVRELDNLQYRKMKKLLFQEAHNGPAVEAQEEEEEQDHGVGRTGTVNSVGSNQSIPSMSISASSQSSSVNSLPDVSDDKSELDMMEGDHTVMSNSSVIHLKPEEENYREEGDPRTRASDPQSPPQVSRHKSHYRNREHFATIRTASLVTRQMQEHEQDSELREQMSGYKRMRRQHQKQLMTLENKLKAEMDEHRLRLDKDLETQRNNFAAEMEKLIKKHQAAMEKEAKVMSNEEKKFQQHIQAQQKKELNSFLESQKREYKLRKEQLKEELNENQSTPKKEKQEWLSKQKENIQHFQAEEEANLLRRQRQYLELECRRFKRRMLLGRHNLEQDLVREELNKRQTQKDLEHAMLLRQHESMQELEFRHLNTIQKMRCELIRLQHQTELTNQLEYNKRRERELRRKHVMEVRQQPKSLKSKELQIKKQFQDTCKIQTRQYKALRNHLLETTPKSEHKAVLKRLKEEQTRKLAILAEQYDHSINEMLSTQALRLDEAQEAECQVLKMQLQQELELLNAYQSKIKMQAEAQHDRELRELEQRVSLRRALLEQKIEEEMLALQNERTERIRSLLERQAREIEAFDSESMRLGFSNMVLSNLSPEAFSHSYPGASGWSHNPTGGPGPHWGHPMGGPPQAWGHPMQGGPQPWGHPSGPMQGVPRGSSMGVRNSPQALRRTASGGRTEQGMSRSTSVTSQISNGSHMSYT

In order of rising residual activity:
1. N/C(=N\N=C/c1ccc(-c2cccc([N+](=O)[O-])c2)o1)N[N+](=O)[O-]  89.6%
2. O=C(O)c1ccc2c3c1cccc3c(=O)n1c3ccccc3nc21  93.3%
3. N#Cc1c(NC(=O)c2cccc3ccccc23)sc2c1CCCC2  106%
4. Cc1cc(Nc2nc(-c3ccccc3)nc3ccccc23)n[nH]1  115%

molecular target: BLK (human) (UniProt P51451); experiment: as above; conditions: compound 0.5 µM; ATP 10 µM

In order of falling residual activity:
1. N#Cc1c(NC(=O)c2cccc3ccccc23)sc2c1CCCC2  105%
2. N/C(=N\N=C/c1ccc(-c2cccc([N+](=O)[O-])c2)o1)N[N+](=O)[O-]  102%
3. O=C(O)c1ccc2c3c1cccc3c(=O)n1c3ccccc3nc21  100%
4. Cc1cc(Nc2nc(-c3ccccc3)nc3ccccc23)n[nH]1  56.2%

molecular target: NTRK2 (human) (UniProt Q16620); experiment: as above; conditions: compound 0.5 µM; ATP 10 µM

In order of rising residual activity:
1. Cc1cc(Nc2nc(-c3ccccc3)nc3ccccc23)n[nH]1  4.37%
2. N/C(=N\N=C/c1ccc(-c2cccc([N+](=O)[O-])c2)o1)N[N+](=O)[O-]  82.4%
3. O=C(O)c1ccc2c3c1cccc3c(=O)n1c3ccccc3nc21  98.4%
4. N#Cc1c(NC(=O)c2cccc3ccccc23)sc2c1CCCC2  100%

molecular target: STK24 (human) (UniProt Q9Y6E0); experiment: as above; conditions: compound 0.5 µM; ATP 10 µM
Sequence (Q9Y6E0 whole entry, looked up): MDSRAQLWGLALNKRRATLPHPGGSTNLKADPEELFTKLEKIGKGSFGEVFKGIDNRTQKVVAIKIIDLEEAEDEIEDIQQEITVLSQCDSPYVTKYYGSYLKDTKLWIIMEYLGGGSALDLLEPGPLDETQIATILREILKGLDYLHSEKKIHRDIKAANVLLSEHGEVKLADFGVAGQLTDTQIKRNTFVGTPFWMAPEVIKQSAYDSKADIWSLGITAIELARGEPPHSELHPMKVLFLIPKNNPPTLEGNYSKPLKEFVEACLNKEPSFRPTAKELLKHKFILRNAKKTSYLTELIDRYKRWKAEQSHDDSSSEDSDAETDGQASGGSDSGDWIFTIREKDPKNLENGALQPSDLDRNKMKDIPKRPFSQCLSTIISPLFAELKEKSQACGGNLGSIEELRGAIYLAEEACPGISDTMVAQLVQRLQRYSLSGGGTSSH

In order of rising residual activity:
1. Cc1cc(Nc2nc(-c3ccccc3)nc3ccccc23)n[nH]1  66%
2. O=C(O)c1ccc2c3c1cccc3c(=O)n1c3ccccc3nc21  87.6%
3. N/C(=N\N=C/c1ccc(-c2cccc([N+](=O)[O-])c2)o1)N[N+](=O)[O-]  87.7%
4. N#Cc1c(NC(=O)c2cccc3ccccc23)sc2c1CCCC2  90.3%

molecular target: ABL2 (human) (UniProt P42684); experiment: as above; conditions: compound 0.5 µM; ATP 10 µM
Sequence (P42684 whole entry, looked up): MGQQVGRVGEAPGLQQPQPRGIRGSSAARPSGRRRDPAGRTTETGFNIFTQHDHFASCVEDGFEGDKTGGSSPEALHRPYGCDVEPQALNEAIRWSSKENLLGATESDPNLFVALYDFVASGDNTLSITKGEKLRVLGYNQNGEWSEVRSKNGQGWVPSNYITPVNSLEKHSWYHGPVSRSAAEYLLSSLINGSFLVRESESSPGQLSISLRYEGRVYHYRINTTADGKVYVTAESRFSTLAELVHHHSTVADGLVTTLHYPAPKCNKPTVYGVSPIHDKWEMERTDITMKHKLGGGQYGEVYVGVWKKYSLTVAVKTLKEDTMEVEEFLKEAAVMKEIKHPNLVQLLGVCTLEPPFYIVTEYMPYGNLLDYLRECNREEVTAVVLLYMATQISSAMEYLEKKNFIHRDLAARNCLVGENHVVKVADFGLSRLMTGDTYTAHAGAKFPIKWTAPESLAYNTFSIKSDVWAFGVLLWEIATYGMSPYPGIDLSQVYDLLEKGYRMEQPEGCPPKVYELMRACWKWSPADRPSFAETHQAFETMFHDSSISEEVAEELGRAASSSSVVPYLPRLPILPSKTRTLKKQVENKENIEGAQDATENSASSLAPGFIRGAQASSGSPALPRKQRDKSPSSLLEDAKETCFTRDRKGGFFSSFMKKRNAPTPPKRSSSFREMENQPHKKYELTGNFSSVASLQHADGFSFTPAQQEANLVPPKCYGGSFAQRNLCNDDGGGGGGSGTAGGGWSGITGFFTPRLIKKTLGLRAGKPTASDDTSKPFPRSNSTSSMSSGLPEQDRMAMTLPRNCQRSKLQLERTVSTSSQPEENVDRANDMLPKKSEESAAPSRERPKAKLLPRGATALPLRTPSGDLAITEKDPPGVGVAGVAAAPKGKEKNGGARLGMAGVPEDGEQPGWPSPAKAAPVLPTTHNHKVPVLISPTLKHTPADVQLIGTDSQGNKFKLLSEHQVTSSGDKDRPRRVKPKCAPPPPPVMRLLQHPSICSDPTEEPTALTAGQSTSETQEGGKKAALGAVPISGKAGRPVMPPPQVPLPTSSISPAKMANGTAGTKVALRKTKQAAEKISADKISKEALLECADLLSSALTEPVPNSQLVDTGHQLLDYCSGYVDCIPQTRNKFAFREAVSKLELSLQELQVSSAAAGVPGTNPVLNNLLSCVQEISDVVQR

In order of rising residual activity:
1. Cc1cc(Nc2nc(-c3ccccc3)nc3ccccc23)n[nH]1  42.5%
2. N/C(=N\N=C/c1ccc(-c2cccc([N+](=O)[O-])c2)o1)N[N+](=O)[O-]  95.7%
3. N#Cc1c(NC(=O)c2cccc3ccccc23)sc2c1CCCC2  98.9%
4. O=C(O)c1ccc2c3c1cccc3c(=O)n1c3ccccc3nc21  100%

molecular target: INSR (human) (UniProt P06213); experiment: as above; conditions: compound 0.5 µM; ATP 10 µM

In order of rising residual activity:
1. Cc1cc(Nc2nc(-c3ccccc3)nc3ccccc23)n[nH]1  31.6%
2. O=C(O)c1ccc2c3c1cccc3c(=O)n1c3ccccc3nc21  91.5%
3. N/C(=N\N=C/c1ccc(-c2cccc([N+](=O)[O-])c2)o1)N[N+](=O)[O-]  92%
4. N#Cc1c(NC(=O)c2cccc3ccccc23)sc2c1CCCC2  98.2%

molecular target: CSNK1G3 (human) (UniProt Q9Y6M4); experiment: as above; conditions: compound 0.5 µM; ATP 10 µM

In order of rising residual activity:
1. Cc1cc(Nc2nc(-c3ccccc3)nc3ccccc23)n[nH]1  75%
2. N/C(=N\N=C/c1ccc(-c2cccc([N+](=O)[O-])c2)o1)N[N+](=O)[O-]  86.2%
3. O=C(O)c1ccc2c3c1cccc3c(=O)n1c3ccccc3nc21  96.9%
4. N#Cc1c(NC(=O)c2cccc3ccccc23)sc2c1CCCC2  104%
